Literature values as cited in patent US20250161538A1, “POLYMER-BASED MATERIAL WITH ANTI-BACTERIAL PROPERTIES WITH IMPROVED MECHANICAL STRENGTH FOR DENTAL APPLICATIONS” (priority 2022, published 2025).

Tested on: adult rat pulp tissue
Settings: in vivo, po

For [Ag+] [Ag ions, silver], which cytotoxic effect is on record?
Its cytotoxic effect is “induce cytotoxic effect”.
